Test results from article PMC10065284, “Protease inhibition, in vitro antibacterial and IFD/MM-GBSA studies of ciprofloxacin-based acetanilides” (PLOS ONE, 2023).

Biological target: T1, serine protease
T1 construct: purified serine protease, indigenously isolated from B. subtilis sp
Assay: casein hydrolysis assay with purified protease, inhibition kinetics
Format: biochemical, Bacillus subtilis

With `COC(=O)c1cn(C2CC2)c2cc(N3CCN(CC(=O)Nc4ccccc4)CC3)c(F)cc2c1=O` [4a, methyl 1-cyclopropyl-6-fluoro-4-oxo-7-(4-(2-oxo-2-(phenylamino)ethyl)piperazin-1-yl)-1,4-dihydro-quinoline-3-carboxylate] the Ki was 0.1 µM.
